Source: patent US10473645B2, “Methods for identifying a receptor for a ligand and uses thereof” (UNIVERSITE DE GENEVE, priority 2014, dated 2019)

What was measured:
Experiment in all cases: OR transcript level by RT-qPCR after in vivo odorant exposure
Design in all cases: species or system mouse; key: The transcript downregulation of 21 out of the 26 olfactory receptor candidates obtained by RNAseq was confirmed by qPCR; false RNAseq positive candidates, namely OR candidates for which in fact mRNA was not downregulated following acetophenone exposure
Conditions in all cases: 5% acetophenone exposure
[1] = tested on: olfr30
Experimental: (§1) In vivo exposure to odorant: Starting 48 h before experiments, mice were habituated to pure DMSO on a cotton ball. 200 μl were pipetted directly onto the cotton and placed in the cage, replacing any cotton that was already in the cage for nest-making purposes.
(§2) On the day of the experiment, mice receiving odorants were transferred to a different room, where they were exposed to a cotton ball on which 200 μl of odorant diluted in pure DMSO were deposited. Exposures started in the morning between 8 and 10 am (that is two hours after lights were on) and mice were killed and dissected between 1 and 3 pm. […] If a number of different odorants were tested in the same experiment, a different overpressurized room would always be used for each odorant to avoid odor cross-contamination.
(§3) After odorant exposure, mice were killed by cervical dislocation and immediately decapitated. The main olfactory epithelia (MOE), were harvested in their entirety and transferred to a tube containing 600 μl of lysis buffer and β-mercaptoethanol (RNAeasy kit, Qiagen, following the manufacturer protocol) and a 0.5 cm diameter steel ball, and then put on ice. Samples were then homogenized using a FastPrep®-24 instrument (MP Biomedicals) at 6 m/s for 30 s and left on ice. RNA extraction was performed on all samples in parallel using the Qiagen RNeasy Mini® kit following the manufacturer's instructions. Two DNase treatments were performed on all samples: first using the Qiagen RNase-Free DNase Set® and then using the Life Technologies Ambion DNase I® kit. RNA samples were then aliquoted and stored at −80° C.
(§4) RNA concentrations were determined using an Amersham Ultrospec® 3100 Pro spectrophotometer, and RNA quality was evaluated with an Agilent Technologies 2100 Bioanalyzer®. Each reverse transcription was performed with 0.5 μg RNA using the Takara Primescript® kit, in a final volume of 10 μl. Primers for reverse transcription were equal mixtures of poly-T nucleotides and random hexamers. Negative controls (omitting the reverse transcriptase enzyme) were performed for each sample. 1/14th of the cDNA preparation was used for each triplicated qPCR reaction.
(§5) qPCR Ct values were analyzed using an in-house developed Microsoft Excel® macro file. Triplicate values were compared and outliers (values with a difference higher than 0.5 Ct to their nearest neighbor) were discarded. The number of conditions with an outlying value was always less than 10% of the total number of conditions. Ct values were converted to quantities relative to the maximum for each given gene. Selected reference genes were then analyzed for variance using the geNorm algorithm. All values were normalized with the olfactory tissue-specific genes Omp and Adcy3. β-Actin was used as a non-tissue-specific reference gene to control for differences in dissection between samples.
(§6) Mice (n=6) were exposed to 5% acetophenone or to a “neutral” control condition for 5 hours. An olfactory cDNA library corresponding to each animal was deep sequenced and the ratios of odorant receptor mRNA concentrations relative to controls were plotted (FIG. 3). […] Based on transcriptional downregulation levels observed by RNAseq following acetophenone exposure, a list of 26 candidate responsive ORs was determined (FIG. 3), that reached 74% decrease (Olfr145) or even over 80% (Olfr169) relative to controls. […] The transcript downregulation of 21 out of the 26 olfactory receptor candidates obtained by RNAseq was confirmed by qPCR.

[2] = tested on: olfr750
Experimental: as §1, §2, §3, §4, §5, §6

[3] = tested on: olfr1501
Experimental: as §1, §2, §3, §4, §5, §6

[4] = tested on: olfr229
Experimental: as §1, §2, §3, §4, §5, §6

[5] = tested on: olfr1350
Experimental: as §1, §2, §3, §4, §5, §6

[6] = tested on: olfr922
Experimental: as §1, §2, §3, §4, §5, §6

[7] = tested on: olfr109
Experimental: as §1, §2, §3, §4, §5, §6

[8] = tested on: olfr901
Experimental: as §1, §2, §3, §4, §5, §6

[9] = tested on: olfr935
Experimental: as §1, §2, §3, §4, §5, §6

[10] = tested on: olfr1135
Experimental: as §1, §2, §3, §4, §5, §6

[11] = tested on: olfr1448
Experimental: as §1, §2, §3, §4, §5, §6

[12] = tested on: olfr1054
Experimental: as §1, §2, §3, §4, §5, §6

Q: `CC(=O)c1ccccc1` [acetophenone] was tested. Which “olfr30 candidate OR (RNAseq) confirmed by qPCR” value [1] did it give?
A: y

Q: What about the “olfr750 candidate OR (RNAseq) confirmed by qPCR” value [2] of the same compound?
A: n

Q: And the “olfr1501 candidate OR (RNAseq) confirmed by qPCR” value [3]?
A: y

Q: What about the “olfr229 candidate OR (RNAseq) confirmed by qPCR” value [4] of the same compound?
A: y

Q: And the “olfr1350 candidate OR (RNAseq) confirmed by qPCR” value [5]?
A: n

Q: What about the “olfr922 candidate OR (RNAseq) confirmed by qPCR” value [6] of the same compound?
A: y

Q: What about the “olfr109 candidate OR (RNAseq) confirmed by qPCR” value [7] of the same compound?
A: y

Q: What about the “olfr901 candidate OR (RNAseq) confirmed by qPCR” value [8] of the same compound?
A: y

Q: What about the “olfr935 candidate OR (RNAseq) confirmed by qPCR” value [9] of the same compound?
A: y

Q: What about the “olfr1135 candidate OR (RNAseq) confirmed by qPCR” value [10] of the same compound?
A: n

Q: What about the “olfr1448 candidate OR (RNAseq) confirmed by qPCR” value [11] of the same compound?
A: y

Q: And the “olfr1054 candidate OR (RNAseq) confirmed by qPCR” value [12]?
A: y
